# Measurements reported in patent US10183944B2 (Asana Biosciences, LLC, priority 2011, dated 2019).
# Assays:
# [1] = molecular target: Syk (356-635 amino acids) catalytic domain (Homo sapiens (Human), UniProt P43405); assay: Inhibition of enzymatic Syk kinase activity (radiometric); assay type: biochemical; settings: read-out: IC50 Syk
# Summary of the method: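 Human Syk (356-635) kinase domain (0.035–7.5 ng/reaction) preincubated with compound 30 minutes at room temperature, then reacted with pG4T substrate, 100 μM ATP (stock) and γ-32P-ATP for 10 minutes at 30° C. Reaction stopped with HCl/ATP, spotted on P81 paper, washed and counted by scintillation. Percent inhibition versus no-compound counts.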
# JAK2 = JAK2 (Homo sapiens (Human), UniProt O60674); assay: Inhibition of enzymatic JAK2 kinase activity (TR-FRET); assay type: biochemical; settings: read-out: IC50 JAK
# Summary of the method: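 Enzyme preincubated with compound 30 min at RT, then Ulight-poly-GT substrate and ATP added for 60 min at RT. EDTA stop, Eu-antiphosphotyrosine antibody; TR-FRET ratio 665/615 nm (ex 340 nm), blank-corrected; % inhibition versus positive control.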
# Chain of JAK2 (O60674 808-1132): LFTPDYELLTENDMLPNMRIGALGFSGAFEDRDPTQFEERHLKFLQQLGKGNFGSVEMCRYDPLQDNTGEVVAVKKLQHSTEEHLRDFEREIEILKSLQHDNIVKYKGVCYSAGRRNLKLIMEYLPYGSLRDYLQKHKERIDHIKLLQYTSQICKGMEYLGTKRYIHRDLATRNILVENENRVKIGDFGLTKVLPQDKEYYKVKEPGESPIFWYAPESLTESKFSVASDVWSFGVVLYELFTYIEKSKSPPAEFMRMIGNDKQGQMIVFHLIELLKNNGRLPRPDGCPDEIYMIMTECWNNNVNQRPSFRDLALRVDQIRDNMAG
IC50 [1],IC50 (JAK2),Compound
< 0.01 µM,< 0.01 µM,"O=c1[nH]ncc2nc(N3CCCCCC3)nc(Nc3ccc(CCN4CCNCC4)cc3)c12 [Example 198, 2-(azepan-1-yl)-4-((4-(2-(piperazin-1-yl)ethyl)phenyl)amino)pyrimido[4,5-d]pyridazin-5(6H)-one]"
< 0.01 µM,< 0.01 µM,"NCCOc1ccc(Nc2nc(N3CCCCCC3)nc3cn[nH]c(=O)c23)cc1 [Example 199, 4-((4-(2-aminoethoxy)phenyl)amino)-2-(azepan-1-yl)pyrimido[4,5-d]pyridazin-5(6H)-one]"
< 0.05 µM,< 0.05 µM,"N#CCC1CCN(c2nc(Nc3ccc(N4CCC(CCCO)CC4)cc3)c3c(=O)[nH]ncc3n2)CC1 [Example 205, 2-(1-(4-((4-(4-(3-hydroxypropyl)piperidin-1-yl)phenyl)amino)-5-oxo-5,6-dihydropyrimido[4,5-d]pyridazin-2-yl)piperidin-4-yl)acetonitrile]"
< 0.05 µM,< 0.01 µM,"N#CCN1CCN(c2ccc(Nc3nc(N4CCCCCC4)nc4cn[nH]c(=O)c34)cc2)CC1 [Example 206, 2-(4-(4-((2-(azepan-1-yl)-5-oxo-5,6-dihydropyrimido[4,5-d]pyridazin-4-yl)amino)phenyl)piperazin-1-yl) acetonitrile]"
< 0.01 µM,< 0.01 µM,"N#CCC1CCN(c2nc(Nc3ccc(N4CCN(CC#N)CC4)cc3)c3c(=O)[nH]ncc3n2)CC1 [Example 207, 2-(1-(4-((4-(4-(cyanomethyl)piperazin-1-yl)phenyl)amino)-5-oxo-5,6-dihydropyrimido[4,5-d]pyridazin-2-yl)piperidin-4-yl)acetonitrile]"
< 0.05 µM,< 0.05 µM,"O=c1[nH]ncc2nc(N3CCCCCC3)nc(Nc3ccc(N4CCC(O)CC4)nc3)c12 [Example 217, 2-(azepan-1-yl)-4-((6-(4-hydroxypiperidin-1-yl)pyridin-3-yl)amino)pyrimido[4,5-d]pyridazin-5(6H)-one]"
< 0.01 µM,< 0.01 µM,"N#CCC1CCN(c2nc(Nc3ccc(N4CCN(CCC(=O)O)CC4)cc3)c3c(=O)[nH]ncc3n2)CC1 [Example 220, 3-(4-(4-((2-(4-(cyanomethyl)piperidin-1-yl)-5-oxo-5,6-dihydropyrimido[4,5-d]pyridazin-4-yl)amino)phenyl)piperazin-1-yl)propanoic acid]"
< 0.1 µM,< 0.05 µM,"O=c1[nH]ncc2nc(N3CCCCCC3)nc(Nc3ccc(-c4nnn(CCO)n4)cc3)c12 [Example 222, 2-(azepan-1-yl)-4-((4-(2-(2-hydroxyethyl)-2H-tetrazol-5-yl)phenyl)amino) pyrimido[4,5-d]pyridazin-5(6H)-one]"
< 0.05 µM,< 0.01 µM,"O=c1[nH]ncc2nc(N3CCCCCC3)nc(Nc3ccc(-c4nn[nH]n4)cc3)c12 [Example 227, 4-((4-(2H-tetrazol-5-yl)phenyl)amino)-2-(azepan-1-yl)pyrimido[4,5-d]pyridazin-5(6H)-one]"
< 0.05 µM,< 0.01 µM,"CCN1CCN(c2ccc(Nc3nc(N4CCCCCC4)nc4cn[nH]c(=O)c34)cn2)CC1 [Example 229, 2-(azepan-1-yl)-4-((6-(4-ethylpiperazin-1-yl)pyridin-3-yl)amino)pyrimido[4,5-d]pyridazin-5(6H)-one]"
< 0.05 µM,< 0.05 µM,"O=C(O)Cn1nnc(-c2ccc(Nc3nc(N4CCCCCC4)nc4cn[nH]c(=O)c34)cc2)n1 [Example 235, 2-(5-(4-((2-(azepan-1-yl)-5-oxo-5,6-dihydropyrimido[4,5-d]pyridazin-4-yl)amino)phenyl)-2H-tetrazol-2-yl)acetic acid]"
< 0.05 µM,< 0.01 µM,"N#CCC(=O)N1CCN(c2ccc(Nc3nc(N4CCC(CC#N)CC4)nc4cn[nH]c(=O)c34)cn2)CC1 [Example 237, 3-(4-(5-((2-(4-(cyanomethyl)piperidin-1-yl)-5-oxo-5,6-dihydropyrimido[4,5-d]pyridazin-4-yl)amino)pyridin-2-yl)piperazin-1-yl)-3-oxopropanenitrile]"
< 0.05 µM,< 0.01 µM,"CC(C)(O)C(=O)N1CCN(c2ccc(Nc3nc(N4CCCCCC4)nc4cn[nH]c(=O)c34)cn2)CC1 [Example 238, 2-(azepan-1-yl)-4-((6-(4-(2-hydroxy-2-methylpropanoyl)piperazin-1-yl)pyridin-3-yl)amino)pyrimido[4,5-d]pyridazin-5(6H)-one]"
< 0.1 µM,< 0.05 µM,"O=c1[nH]ncc2nc(N3CCCCCC3)nc(Nc3ccc(OCCN4CCN(CCO)CC4)cc3)c12 [Example 239, 2-(azepan-1-yl)-4-((4-(2-(4-(2-hydroxyethyl)piperazin-1-yl)ethoxy)phenyl)amino)pyrimido[4,5-d]pyridazin-5(6H)-one]"
< 0.05 µM,< 0.01 µM,"N#CCC(=O)N1CCN(c2ccc(Nc3nc(N4CCC(CC#N)CC4)nc4cn[nH]c(=O)c34)cc2)CC1 [Example 240, 3-(4-(4-((2-(4-(cyanomethyl)piperidin-1-yl)-5-oxo-5,6-dihydropyrimido[4,5-d]pyridazin-4-yl)amino)phenyl)piperazin-1-yl)-3-oxopropanenitrile]"

Compound,IC50 [1],IC50 (JAK2)
"O=c1[nH]ncc2nc(N3CCCCCC3)nc(Nc3ccc(N4CCC(CO)CC4)cc3)c12 [Example 202, 2-(azepan-1-yl)-4-((4-(4-(hydroxymethyl)piperidin-1-yl)phenyl)amino) pyrimido[4,5-d]pyridazin-5(6H)-one]",< 0.05 µM,< 0.01 µM
"O=c1[nH]ncc2nc(N3CCCCCC3)nc(Nc3ccc(OCCN4CCC(CO)CC4)cc3)c12 [Example 203, 2-(azepan-1-yl)-4-((4-(2-(4-(hydroxymethyl)piperidin-1-yl)ethoxy)phenyl)amino)pyrimido[4,5-d]pyridazin-5(6H)-one]",< 0.05 µM,< 0.01 µM
"O=c1[nH]ncc2nc(N3CCCCCC3)nc(Nc3ccc(N4CCNCC4)nc3)c12 [Example 221, 2-(azepan-1-yl)-4-((6-(piperazin-1-yl)pyridin-3-yl)amino)pyrimido[4,5-d]pyridazin-5(6H)-one]",< 0.05 µM,< 0.01 µM
"CC(C)(O)C(=O)N1CCN(c2ccc(Nc3nc(N4CCC(CC#N)CC4)nc4cn[nH]c(=O)c34)cc2)CC1 [Example 223, 2-(1-(4-((4-(4-(2-hydroxy-2-methylpropanoyl)piperazin-1-yl)phenyl)amino)-5-oxo-5,6-dihydropyrimido[4,5-d]pyridazin-2-yl)piperidin-4-yl) acetonitrile]",< 0.01 µM,< 0.01 µM
"CCN(CC)CCOc1ccc(Nc2nc(N3CCC(CC#N)CC3)nc3cn[nH]c(=O)c23)cc1 [Example 224, 2-(1-(4-((4-(2-(diethylamino)ethoxy)phenyl)amino)-5-oxo-5,6-dihydropyrimido[4,5-d]pyridazin-2-yl)piperidin-4-yl)acetonitrile]",< 0.05 µM,< 0.05 µM
"N#CCC(=O)N1CCN(c2ccc(Nc3nc(N4CCCCCC4)nc4cn[nH]c(=O)c34)cn2)CC1 [Example 234, 3-(4-(5-((2-(azepan-1-yl)-5-oxo-5,6-dihydropyrimido[4,5-d]pyridazin-4-yl)amino)pyridin-2-yl)piperazin-1-yl)-3-oxopropanenitrile]",< 0.05 µM,< 0.01 µM
"O=c1[nH]ncc2nc(N3CCCCCC3)nc(Nc3ccc(N4CCC(CCO)CC4)nc3)c12 [Example 236, 2-(azepan-1-yl)-4-((6-(4-(2-hydroxyethyl)piperidin-1-yl)pyridin-3-yl)amino) pyrimido[4,5-d]pyridazin-5(6H)-one]",< 0.1 µM,< 0.05 µM
